Consider one molecule from patent US11648222B2, “Use of CYP26-resistant RAR alpha selective agonists in the treatment of cancer” (Io Therapeutics, Inc., priority 2015, dated 2023).

In one assay the test system is non-APL AML cells. The conditions noted are these: in vitro; cited from earlier work.
In assay [1] the test system is OCI-AML 3, Kasumi-1 and APL NB4 cells. The assay can be described thus: Clonogenic growth of AML cell lines in the presence or absence of stroma. It counts as cell-based. The conditions noted are these: presence or absence of stroma. The method, then:
The BM stroma, which expresses inducibly high levels of CYP26, metabolically inactivates ATRA and provides a protected environment for AML cancer stem cells. Synthetic, CYP26-resistant RARα agonists, such as IRX5183 and AM80, should be able to bypass stroma-mediated protection of AML cells and differentiate the cancer stem cells resident in the protected environment of bone marrow niche. To test these hypotheses, clonogenic growth experiments were conducted in the non-APL AML cell lines OCI-AML 3 and Kasumi-1 and APL NB4 cells, which were treated with ATRA, IRX5183, and AM80 in the presence or absence of stroma.

In a further assay the test system is AML. The conditions noted are these: patients; cited from earlier work.

`CC1=C(/C=C/C(C)=C/C=C/C(C)=C/C(=O)O)C(C)(C)CCC1` [ATRA, All-trans retinoic acid]: in the assay with non-APL AML cells, the differentiation and apoptosis entry is “causes terminal differentiation and apoptosis”. In addition, the clonogenic growth result in assay [1] was “inhibited clonogenic growth only in the absence of stroma”. The clinical effectiveness result in the assay on AML is recorded as “clinically ineffective”.
